Starred links: 1 amine or outer side, 2 acyl side, 3 side chain; linkers in the order of their positions; H or OH if unused. Positions of bridges follow the written chain, without caps; N, C: chain ends. Non-standard residues stand in square brackets, D forms with d. Residues, ends and D or L forms follow the SMILES beside them. ξ: configuration not given here. X1 = CC(C)[C@H](CC(=O)[C@@H](N[*:1])C(C)C)C(=O)[*:2]; NMeF = CN[C@@H](Cc1ccccc1)C(=O)O; NMeNle = CCCC[C@H](NC)C(=O)O; NMeA = CN[C@@H](C)C(=O)O; ξD = NC(CC(=O)O)C(=O)O
Molecular target: T1, human ROR1 (Homo sapiens, UniProt Q01973)
T1 construct: host or cells: HEK 293T cells, Tet-on system induced with doxycycline
Assay: ROR1 high content cell-based binding assay
Conditions: read-out: ROR1 Binding 293T Human HC Cell Based Assay IC50
Method: ROR1 high content cell-based binding assay: Human embryonic kidney 293T cells (293T) expressing human ROR1 with Tet-on system by doxycycline were used (Arctic-488134) for the assessment of inhibition of the binding of fluorescently-labeled competing peptide (“Probe”) that specifically binds to human ROR1. […] Cryopreserved vials were thawed in a 37° C. water bath. Cells were washed in assay culture media [DMEM (Life Technologies Inc. Cat. […] Cat. No. 15140-122) and […] dox] and diluted 1.0×10^5 cells/mL. Cells were seeded into PDL-coated 384 well plates (BD Falcon Cat. No. 356663) at 2,000 cells/20 μL. Plates were allowed to incubate for 10 minutes at room temperature and then transferred to a 37° C./5% CO2 incubator for overnight incubation. The next day, 125 nL of the test compound was added using an ECHO followed by the addition of 5 μL/well of 5-FAM-labeled probe to cells at a final concentration of 30 nM. Sample were incubated for 1 hour at 37° C. for 1 hour, followed by 3 washes in […] of dPBS. Cells were fixed by adding 8% (w/v) formaldehyde (Sigma Cat. No. 252549), 20 μg/mL Hoechst (Thermo Scientific Cat. No. 62249) in PBS for 20 minutes at room temperature. The plates were washed 3 more times in dPBS and 15 μl of PBS was left in the wells following the last wash. The plates were sealed, and data was using obtained using a CellInsight NXT High Content Screening Platform IC903000 (Thermo Scientific).

T1 sequence (Q01973 30-937): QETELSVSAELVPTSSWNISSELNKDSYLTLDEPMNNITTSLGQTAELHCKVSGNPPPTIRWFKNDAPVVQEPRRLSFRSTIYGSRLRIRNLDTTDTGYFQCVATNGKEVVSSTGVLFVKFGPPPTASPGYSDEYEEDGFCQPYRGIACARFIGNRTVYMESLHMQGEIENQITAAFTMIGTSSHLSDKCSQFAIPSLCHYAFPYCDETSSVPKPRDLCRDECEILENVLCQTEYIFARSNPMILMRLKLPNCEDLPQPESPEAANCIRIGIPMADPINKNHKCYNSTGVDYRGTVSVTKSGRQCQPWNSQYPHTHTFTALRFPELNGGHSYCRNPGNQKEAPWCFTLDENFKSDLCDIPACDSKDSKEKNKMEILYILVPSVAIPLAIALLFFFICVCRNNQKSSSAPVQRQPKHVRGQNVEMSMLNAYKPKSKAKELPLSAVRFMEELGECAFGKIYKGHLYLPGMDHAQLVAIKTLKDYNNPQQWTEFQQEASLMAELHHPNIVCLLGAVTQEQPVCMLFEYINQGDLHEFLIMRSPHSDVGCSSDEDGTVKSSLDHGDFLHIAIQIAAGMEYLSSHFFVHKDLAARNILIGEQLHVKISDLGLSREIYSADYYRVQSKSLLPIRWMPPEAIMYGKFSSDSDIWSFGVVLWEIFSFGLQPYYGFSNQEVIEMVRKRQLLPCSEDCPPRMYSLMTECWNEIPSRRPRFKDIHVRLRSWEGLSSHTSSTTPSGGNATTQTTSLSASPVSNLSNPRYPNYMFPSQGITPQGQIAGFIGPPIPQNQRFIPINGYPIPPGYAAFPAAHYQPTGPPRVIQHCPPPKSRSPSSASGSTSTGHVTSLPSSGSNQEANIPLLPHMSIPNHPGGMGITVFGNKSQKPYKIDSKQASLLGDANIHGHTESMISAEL

IC50 [nM]	SMILES
99	CC(C)C[C@@H]1NC(=O)[C@H](Cc2ccccc2)NC(=O)CSC[C@@H](C(=O)NCC(N)=O)NC(=O)[C@H](C)NC(=O)[C@H](Cc2c[nH]c3ccccc23)NC(=O)[C@H](Cc2ccccc2)NC(=O)[C@H](Cc2c[nH]c3ccccc23)NC(=O)CNC(=O)[C@H](Cc2ccc(O)cc2)NC(=O)[C@H](CCCNC(=N)N)NC(=O)[C@H](C(C)C)NC(=O)[C@H](Cc2c[nH]c3ccccc23)NC1=O [Example 1004] ({CH2CO}-FLWVRYGWFWACG-NH2; thioether N-12)
147	CC(C)C[C@@H]1NC(=O)[C@H](Cc2c[nH]c3ccccc23)NC(=O)[C@H](Cc2ccccc2)NC(=O)[C@H](Cc2c[nH]c3ccccc23)NC(=O)CNC(=O)[C@H](CO)NC(=O)[C@H](Cc2ccc(O)cc2)NC(=O)[C@H](C(C)C)NC(=O)[C@H](CCCNC(=N)N)NC(=O)[C@H](Cc2ccccc2)NC(=O)[C@H](Cc2ccccc2)NC(=O)CSC[C@@H](C(=O)NCC(N)=O)NC1=O [Example 1006] ({CH2CO}-FFRVYSGWFWLCG-NH2; thioether N-12)
36	CC[C@H](C)[C@@H]1NC(=O)[C@H](Cc2ccccc2)NC(=O)CSC[C@@H](C(=O)NCC(N)=O)NC(=O)[C@H](C)NC(=O)[C@H](Cc2ccccc2)NC(=O)[C@H](Cc2ccc(O)cc2)NC(=O)[C@H](Cc2c[nH]c3ccccc23)NC(=O)CNC(=O)[C@H](CCC(=O)O)NC(=O)[C@H](Cc2ccc(O)cc2)NC(=O)[C@H](C(C)C)NC(=O)[C@H](Cc2c[nH]c3ccccc23)NC1=O [Example 1008] ({CH2CO}-FIWVYEGWYFACG-NH2; thioether N-12)
821	CC(C)C[C@@H]1NC(=O)[C@H](Cc2c[nH]c3ccccc23)NC(=O)[C@H](Cc2ccccc2)NC(=O)[C@H](Cc2c[nH]c3ccccc23)NC(=O)CNC(=O)CNC(=O)[C@H](CC(C)C)NC(=O)[C@H](C(C)C)NC(=O)[C@H](CC(C)C)NC(=O)[C@H](Cc2ccc(O)cc2)NC(=O)[C@H](Cc2ccccc2)NC(=O)CSC[C@@H](C(=O)NCC(N)=O)NC1=O [Example 1010] ({CH2CO}-FYLVLGGWFWLCG-NH2; thioether N-12)
168	CC(C)C[C@@H]1NC(=O)[C@H](Cc2c[nH]c3ccccc23)NC(=O)[C@H](Cc2ccccc2)NC(=O)[C@H](Cc2c[nH]c3ccccc23)NC(=O)CNC(=O)[C@H](CC(=O)O)NC(=O)[C@H](CCCNC(=N)N)NC(=O)[C@H](C(C)C)CC(=O)[C@H](C(C)C)NC(=O)[C@H](Cc2ccc(O)cc2)NC(=O)[C@H](Cc2ccccc2)NC(=O)CSC[C@@H](C(=O)NCC(N)=O)NC1=O [Example 1011] ({CH2CO}-FY[X1]RDGWFWLCG-NH2; thioether N-11)
36	CC(C)C[C@@H]1NC(=O)[C@H](Cc2c[nH]c3ccccc23)NC(=O)[C@H](Cc2ccccc2)NC(=O)[C@H](Cc2c[nH]c3ccccc23)NC(=O)CNC(=O)[C@H](CO)NC(=O)[C@H](Cc2ccc(O)cc2)NC(=O)[C@H](C(C)C)NC(=O)[C@@H]2CCCN2C(=O)[C@H](Cc2ccc(O)cc2)NC(=O)[C@H](Cc2ccccc2)NC(=O)CSC[C@@H](C(=O)NCC(N)=O)NC1=O [Example 1012] ({CH2CO}-FYPVYSGWFWLCG-NH2; thioether N-12)

Continued, compound first:

SMILES	IC50 [nM]
CC(C)C[C@@H]1NC(=O)[C@H](Cc2c[nH]c3ccccc23)NC(=O)[C@H](C(C)C)NC(=O)CNC(=O)[C@H](CO)NC(=O)[C@H](Cc2ccccc2)N(C)C(=O)[C@H](Cc2ccc(O)cc2)NC(=O)[C@H](Cc2ccc(O)cc2)NC(=O)[C@@H](Cc2ccccc2)NC(=O)CSC[C@@H](C(=O)NCC(N)=O)NC(=O)[C@H](C(C)C)NC(=O)[C@H](Cc2ccc(O)cc2)NC1=O [Example 1000] ({CH2CO}-[dF]YY[NMeF]SGVWLYVCG-NH2; thioether N-12)	11
CC(C)C[C@@H]1NC(=O)[C@H](Cc2c[nH]c3ccccc23)NC(=O)[C@H](Cc2ccc(O)cc2)NC(=O)[C@H](Cc2c[nH]c3ccccc23)NC(=O)CNC(=O)[C@H](CO)NC(=O)[C@H](Cc2ccc(O)cc2)NC(=O)[C@H](C(C)C)NC(=O)[C@@H]2CCCN2C(=O)[C@H](Cc2ccc(O)cc2)NC(=O)[C@H](Cc2ccccc2)NC(=O)CSC[C@@H](C(=O)NCC(N)=O)NC1=O [Example 1001] ({CH2CO}-FYPVYSGWYWLCG-NH2; thioether N-12)	49
CCCC[C@H]1C(=O)N[C@H](C(=O)NCC(N)=O)CSCC(=O)N[C@@H](Cc2ccccc2)C(=O)N[C@@H](Cc2ccc(O)cc2)C(=O)N[C@@H](Cc2c[nH]c3ccccc23)C(=O)N[C@@H](CO)C(=O)N[C@@H](CO)C(=O)N[C@@H](CCCNC(=N)N)C(=O)N(C)[C@@H](C)C(=O)N[C@@H](Cc2c[nH]c3ccccc23)C(=O)N[C@@H](Cc2ccc(O)cc2)C(=O)N[C@@H](CC(C)C)C(=O)N1C [Example 1003] ({CH2CO}-FYWSSR[NMeA]WYL[NMeNle]CG-NH2; thioether N-12)	8
CC(C)C[C@@H]1NC(=O)[C@H](Cc2ccccc2)NC(=O)CSC[C@@H](C(=O)NCC(N)=O)NC(=O)[C@H](C)NC(=O)[C@H](Cc2ccc(O)cc2)NC(=O)[C@H](Cc2ccc(O)cc2)NC(=O)[C@H](Cc2c[nH]c3ccccc23)NC(=O)CNC(=O)[C@H](Cc2ccc(O)cc2)NC(=O)[C@H](CCCNC(=N)N)NC(=O)[C@H](C(C)C)NC(=O)[C@H](Cc2c[nH]c3ccccc23)NC1=O [Example 1005] ({CH2CO}-FLWVRYGWYYACG-NH2; thioether N-12)	30
CC(C)C[C@@H]1NC(=O)[C@H](Cc2c[nH]c3ccccc23)NC(=O)[C@H](Cc2ccc(O)cc2)NC(=O)[C@H](Cc2c[nH]c3ccccc23)NC(=O)CNC(=O)C(CC(=O)O)NC(=O)[C@H](Cc2ccc(O)cc2)NC(=O)[C@H](C(C)C)NC(=O)[C@@H]2CCCN2C(=O)[C@H](Cc2ccc(O)cc2)NC(=O)[C@H](Cc2ccccc2)NC(=O)CSC[C@@H](C(=O)NCC(N)=O)NC1=O (some centres unmarked) [Example 1009] ({CH2CO}-FYPVY[ξD]GWYWLCG-NH2; thioether N-12)	54
CC(C)C[C@@H]1NC(=O)[C@H](Cc2ccccc2)NC(=O)CSC[C@@H](C(=O)NCC(N)=O)NC(=O)[C@H](C)NC(=O)[C@H](Cc2c[nH]c3ccccc23)NC(=O)[C@H](Cc2ccc(O)cc2)NC(=O)[C@H](Cc2c[nH]c3ccccc23)NC(=O)[C@H](Cc2c[nH]c3ccccc23)NC(=O)[C@H](CCC(=O)O)NC(=O)[C@H](Cc2ccc(O)cc2)NC(=O)[C@H](C(C)C)NC(=O)[C@H](Cc2c[nH]c3ccccc23)NC1=O [Example 1013] ({CH2CO}-FLWVYEWWYWACG-NH2; thioether N-12)	637
CC(C)C[C@@H]1NC(=O)[C@H](Cc2c[nH]c3ccccc23)NC(=O)[C@H](Cc2ccccc2)NC(=O)[C@H](Cc2c[nH]c3ccccc23)NC(=O)CNC(=O)[C@H](CO)NC(=O)[C@H](Cc2ccc(O)cc2)NC(=O)[C@H](C(C)C)NC(=O)[C@H](CCCNC(=N)N)NC(=O)[C@H](Cc2ccccc2)NC(=O)[C@H](Cc2ccccc2)NC(=O)CSC[C@@H](C(N)=O)NC1=O [Example 1014] ({CH2CO}-FFRVYSGWFWLC-NH2; thioether N-12)	707
CC(C)C[C@@H]1NC(=O)[C@H](Cc2ccc(O)cc2)NC(=O)[C@H](Cc2ccccc2)NC(=O)CSC[C@@H](C(=O)NCC(N)=O)NC(=O)[C@H](CC(C)C)NC(=O)[C@H](Cc2ccccc2)N(C)C(=O)[C@H](Cc2ccc(O)cc2)NC(=O)[C@H](Cc2c[nH]c3ccccc23)NC(=O)CNC(=O)[C@H](Cc2cnc[nH]2)NC(=O)[C@H](Cc2ccc(O)cc2)NC(=O)[C@H](C(C)C)NC1=O [Example 1015] ({CH2CO}-FYLVYHGWY[NMeF]LCG-NH2; thioether N-12)	17
CC(C)C[C@@H]1NC(=O)[C@H](Cc2ccc(O)cc2)NC(=O)[C@H](Cc2ccccc2)NC(=O)CSC[C@@H](C(=O)NCC(N)=O)NC(=O)[C@H](CC(C)C)NC(=O)[C@H](Cc2ccccc2)N(C)C(=O)[C@H](Cc2ccc(O)cc2)NC(=O)[C@H](Cc2c[nH]c3ccccc23)NC(=O)CNC(=O)[C@H](CCC(N)=O)NC(=O)[C@H](Cc2ccc(O)cc2)NC(=O)[C@H](C(C)C)NC1=O [Example 1016] ({CH2CO}-FYLVYQGWY[NMeF]LCG-NH2; thioether N-12)	7
CC(C)C[C@@H]1NC(=O)[C@H](Cc2ccc(O)cc2)NC(=O)[C@H](Cc2ccccc2)NC(=O)CSC[C@@H](C(=O)NCC(N)=O)NC(=O)[C@H](CC(C)C)NC(=O)[C@H](Cc2ccccc2)N(C)C(=O)[C@H](Cc2ccc(O)cc2)NC(=O)[C@H](Cc2c[nH]c3ccccc23)NC(=O)CNC(=O)[C@H](CC(=O)O)NC(=O)[C@H](Cc2ccc(O)cc2)NC(=O)[C@H](C(C)C)NC1=O [Example 1017] ({CH2CO}-FYLVYDGWY[NMeF]LCG-NH2; thioether N-12)	14
CC(C)C[C@@H]1NC(=O)[C@H](Cc2ccc(O)cc2)NC(=O)[C@H](Cc2ccccc2)NC(=O)CSC[C@@H](C(=O)NCC(N)=O)NC(=O)[C@H](CC(C)C)NC(=O)[C@H](Cc2ccccc2)N(C)C(=O)[C@H](Cc2ccc(O)cc2)NC(=O)[C@H](Cc2c[nH]c3ccccc23)NC(=O)CNC(=O)[C@H](CCCNC(=N)N)NC(=O)[C@H](Cc2ccc(O)cc2)NC(=O)[C@H](C(C)C)NC1=O [Example 1018] ({CH2CO}-FYLVYRGWY[NMeF]LCG-NH2; thioether N-12)	30

Source: patent US20240116988A1, “ANTI-ROR1 MACROCYCLIC PEPTIDES AND COMPOSITIONS” (BRISTOL-MYERS SQUIBB COMPANY, priority 2022, published 2024)
